Laboratory results as given in patent US5972894A, “Peptides having potassium channel opener activity” (Cytran, Inc., priority 1997, dated 1999).
Residues, ends and D or L forms follow the SMILES beside them.

Tested on: Smooth Muscle Cells of Rat Portal Vein
Experiment: Spontaneous contractile activity of rat portal vein smooth muscle specimens
Assay type: cell-based
Settings: 10^-6 g/ml
Procedure: Rat portal vein SMS samples were surgically isolated from random bred rats weighing 200-250 g. The suitability of each isolated rat portal vein SMS was established by measuring the spontaneous contraction response and its contractile response of the specimen to potassium chloride (KCl) as follows. Each isolated SMS was placed into an organ bath with standard Krebs-Henseleit (KH) solution at 35° C. Then, 0.5 ml of physiological saline were added into the organ bath. In this procedure, one end of the smooth muscle strip was fixed, while the other end of the muscle strip was connected with a probe which transmitted contraction-induced signals to an analog-to-digital converter. The spontaneous contraction curve for each SMS was recorded by taking repeated measurements over a 1-minute period. Next, 0.5 ml of a 600 mM solution of KCl in physiological saline was added to the SMS sample/organ bath to achieve a final concentration of 60 mM KCl. KCl induces contraction of rat portal vein tissue at a fmal tissue concentration of about 60 mM.
The KCl-induced contraction curve for each specimen sample was then recorded over the next 5-minute period. […] During this stabilization period, the spontaneous contraction curve for each SMS was verified by monitoring the data obtained from analog-to-digital converter.
To each SMS in the organ bath prepared according to Steps 2 and 3 above, 0.5 ml of physiological saline was added, and the spontaneous contraction curve was recorded for 1 minute. Each spontaneous contraction curve served as baseline (control) curve for comparison with the respective spontaneous contraction of each SMS in the presence of a test substance or reference substance.
Spontaneous contraction curve values for each SMS were recorded by making repetitive measurements of the spontaneous contractile activity of each sample at 2, 5, 10, and 15 minutes after the addition of the test or reference substance to each SMS/organ bath. Next, 0.5 ml of a solution of 600 mM solution of KCl in […] in the organ bath until a final concentration of 60 mM KCl was achieved. The contractile activity of each SMS was then measured for 5 minutes.

## NCC(=O)N[C@@H](CCC(=O)O)C(=O)O [GE, L-Glycyl-L-Glutamic acid] (H-Gly-Glu-OH)
  effect on spontaneous contractions (amplitude and area under curve): appreciably reduced the amplitude of and area under the contraction curve
2 min after application
  Amplitude of spontaneous contraction (% of Control): 114.93%
  Area Under Curve of spontaneous contraction (% of Control): 134.77%
5 min after application
  Amplitude of spontaneous contraction (% of Control): 75.56%
  Area Under Curve of spontaneous contraction (% of Control): 87.51%
10 min after application
  Amplitude of spontaneous contraction (% of Control): 60.37%
  Area Under Curve of spontaneous contraction (% of Control): 70.07%
15 min after application
  Amplitude of spontaneous contraction (% of Control): 63.94%
  Area Under Curve of spontaneous contraction (% of Control): 75.08%
